Measurements from the NIST ThermoML archive (doi:10.1016/j.jct.2011.12.024).

Assay: refractive index (other wavelength) (dimensionless); xn = mol fraction of the nth substance listed
Settings: 101.33 kPa, Liquid, Wavelength=632.8 nm, Standard Abbe refractometry

COC(=O)CCCCC(=O)OC [dimethyl 1,6-hexanedioate] + CCCCCCC
Settings	refractive index
289.5 K, x1 = 1	1.4287
291.65 K, x1 = 1	1.4279
292.22 K, x1 = 0.1018	1.3909
292.85 K, x1 = 0.5999	1.412
293.07 K, x1 = 0.7009	1.4159
293.2 K, x1 = 0.8979	1.4236
293.27 K, x1 = 0.1018	1.3904
293.28 K, x1 = 0.8048	1.42
293.87 K, x1 = 0.5999	1.4115
294.11 K, x1 = 0.8979	1.4232
294.12 K, x1 = 0.7009	1.4155
294.22 K, x1 = 0.8048	1.4196
294.37 K, x1 = 0.1018	1.3898
294.86 K, x1 = 0.5999	1.4111
294.9 K, x1 = 1	1.4265
294.96 K, x1 = 0.2007	1.398
295.01 K, x1 = 0.8979	1.4228
295.12 K, x1 = 0.8048	1.4192
295.15 K, x1 = 0.7009	1.415
295.39 K, x1 = 0.1018	1.3893
295.61 K, x1 = 0.3992	1.402
295.8 K, x1 = 0.4976	1.4062
295.83 K, x1 = 0.5999	1.4107
295.94 K, x1 = 0.8979	1.4224
295.95 K, x1 = 0.2007	1.3975
296.09 K, x1 = 0.8048	1.4188
296.15 K, x1 = 0.7009	1.4146
296.45 K, x1 = 0.1018	1.3888
296.65 K, x1 = 0.3992	1.4016
296.81 K, x1 = 0.5999	1.4103
296.89 K, x1 = 0.8979	1.422
296.9 K, x1 = 0.4976	1.4056
296.91 K, x1 = 0.2007	1.3971
296.94 K, x1 = 1	1.4257
297.08 K, x1 = 0.8048	1.4184
297.23 K, x1 = 0.7009	1.4142
297.45 K, x1 = 0.1018	1.3883
297.64 K, x1 = 0.3992	1.4011
297.81 K, x1 = 0.8979	1.4216
297.87 K, x1 = 0.5999	1.4098
297.95 K, x1 = 0.4976	1.4052
298.02 K, x1 = 0.2007	1.3965
298.02 K, x1 = 0.8048	1.418
298.15 K, x1 = 0.7009	1.4138
298.66 K, x1 = 0.3992	1.4007
298.92 K, x1 = 0.4976	1.4048
299.11 K, x1 = 0.2007	1.396
299.7 K, x1 = 0.3992	1.4002
299.93 K, x1 = 0.4976	1.4043
300.15 K, x1 = 0.2007	1.3955
300.67 K, x1 = 0.3992	1.3997
300.93 K, x1 = 0.4976	1.4039
301.21 K, x1 = 0.2007	1.395
301.74 K, x1 = 0.3992	1.3992
301.98 K, x1 = 0.4976	1.4034
